What all share (type): in vivo, mice (Std:ddY, male)
The test system of assay [1] is pain threshold (tail-pressure). The assay can be described thus: Tail-pressure method, experiment combined with morphine administration. As to conditions: for Inhibition rate: mean ± standard error, n = 7. On the procedure: (3) Experiment Combined with Morphine Administration
Std:ddY Strain male mice (20-25 g) were fasted for one day before the experiment, and were used. In this experiment, the tartaric acid salt of a compound of number (2) in Table 1 and morphine hydrochloride were used. The tartaric acid salt of a compound of number (2) was dissolved in 0.9% physiological saline solution at the rate of 7 mg/10 ml. Morphine hydrochloride was dissolved in 0.9% physiological saline solution at the rates of 5 mg/2 ml, 3 mg/2 ml and 1 mg/2 ml. As a control, 0.9% phisiological saline solution was used. A tail-pressure apparatus was used in this experiments. Before the administration of test compounds, the pain threshold was measured twice at intervals of 30 minutes and those mice indicating a pain threshold of 50 to 100 mmHg were selected and used. Mice was divided in the following four groups, (i) control group, (ii) the administration group of the tartaric acid salt of a compound of number (2), (iii) the administration group of morphine hydrochloride and (iv) the combined administration group with the tartaric acid salt of a compound of number (2) and morphine hydrochloride. In the administration group of the tartaric acid salt of a compound of number (2), 0.9% physiological saline solution of this tartaric acid salt mentioned above was injected s.c. at the rate of 10 ml/kg and, 30 minutes later, 0.9% physiological saline solution was injected i.v. at the rate of 2 ml/kg. In the administration group of morphine hydrochloride, 0.9% physiological saline solution was injected s.c. at the rate of 10 ml/kg and, 30 minutes later, the above physiological saline solution of morphine hydrochloride was injected i.v. at the rate of 2 ml/kg. In the combined administration group with the tartaric acid salt of a compound of number (2) and morphine hydrochloride,the above physiological saline solution of the tartaric acid salt of a compound of number (2) was injected s.c. at the rate of 10 ml/kg and, 30 minutes later, the above physiological saline solution of morphine hydrochloride was injected i.v. at the rate of 2 ml/kg. In control group, 0.9% physiological saline solution was injected s.c. at the rate of 10 ml/kg and, 30 minutes later, 0.9% physiological saline solution was injected i.v. at the rate of 2 ml/kg. Each pain threshold was measured 10, 20 and 30 minutes after an intravenous injection. The results were described in Table 9 as an inhibition rate (%) indicating in the preceding paragraph (1).

The subject of assay [2] is carrageenin-induced paw edema. The assay can be described thus: Antiinflammatory activity by the carrageenin-induced hind paw edema. The note with it: mouse, 30 mg/kg p.o., mean ± standard error, n = 6. The method, then: Measurement of Antiinflammatory Activity by the Carrageenin-Induced Hind Paw Edema
Std:ddY Strain male mice (20-25 g) were fasted for one day before the experiment, and were used. After test compounds shown in Table 1 was formed to a salt with tartaric acid, this salt was dissolved in sterilized and distilled water at the rate of 30 mg/10 ml to give the test compound solution. As a control, sterilized and distilled water was used. One hour after the oral administration of test compound solutions, 25 μl of λ-carrageenin suspended in 0.9% physiological saline solution (0.5 mg/25 μl) was injected s.c. under the plantar surface of the right hind paw of a mouse and 25 μl of 0.9% physiological saline solution was injected s.c. under the plantar surface of the left hind paw of the same mouse. Three hours and five hours after carrageenin injection, the […] of the paw was measured with a dial gauge calliper. To the control group, One hour after the oral administration of sterilized and distilled water at the rate of 10 ml/kg, 25 μl of λ-carrageenin (0.5 mg/25 μl) suspended in 0.9% physiological saline solution was injected s.c. under the plantar surface of the right hind paw of a mouse and 25 μl of 0.9% physiological saline solution was injected s.c. under the plantar surface of the left hind paw of the same mouse and the later operation was done in the same manner as in the test compound dosing group mentioned above. The results were described as a swelling rate (%) obtained from the following equation.
Swelling rate (%)=(R-L)×100/L
R: the thickness of the right hind paw
L: the thickness of the left hind paw
For orientation: In the carrageenan paw model, swelling and tenderness develop within hours.

The subject of assay [3] is pain threshold (tail-pressure). Put plainly: Analgesic activity by the tail-pressure method (s.c.). As to conditions: mouse, 10 mg/10 ml at 10 ml/kg s.c., 1 hour after administration, mean ± standard error. On the procedure: (1) Measurement of Analgesic Activity by the Tail-Pressure Method
Std:ddY Strain male mice (20-25 g) were fasted for one day before the experiment, and were used. After test compounds shown in Table 1 was formed to a salt with tartaric acid, this salt was dissolved in 0.9% physiological saline solutions at the rate of 10 mg/10 ml to give the test compoun d solution . As a control, 0.9% physiological saline solution was used. A tail-pressure apparatus was used in this experiments. Before the administration of test compounds, the pain threshold was measured twice at intervals of 30 minutes and those mice indicating a pain threshold of 50 to 100 mmHg were selected and used. The pain threshold of each mouse was measured at 1 hour after test compound solution mentioned above was administered at 10 ml/kg, s.c. 0.9% Physiological saline solution as a control was administered at 10 ml/kg, s.c . The results were described as an inhibition rate (%) obtained from the following equation. Cutoff level of pressure was defined to be 230 mmHg for the prevention of the damage of mouse tail.
Inhibition rate (%)=(A-B)×100/(C-B)
A: Pain threshold (mmHg) after the administration of test compound solution
B: Pain threshold (mmHg) before the administration of test compound solution
C: Cutoff pressure (230 mmHg)

Regarding `CCN1CC2(COC)C(O)CC(OC)C34C5CC6(O)C(OC)C(OC(C)=O)C(O)(C5C6OC(=O)c5ccc(Cl)cc5)C(C(OC)C23)C14` (stereo not shown) [(2), 15-O-acetyl-14-O-p-chlorobenzoylaconine], the Inhibition rate in assay [1] (compound (2) 7 mg/kg s.c. alone (morphine 0), 10 min after i.v. injection) was found to be 30 ± 11%; in assay [1] (compound (2) 7 mg/kg s.c. alone (morphine 0), 20 min after i.v. injection), 35 ± 12%; in assay [1] (compound (2) 7 mg/kg s.c. alone (morphine 0), 30 min after i.v. injection), 37 ± 11%; in assay [1] (compound (2) 7 mg/kg s.c. combined with morphine 1 mg/kg i.v., 10 min), 31 ± 12%; in assay [1] (compound (2) 7 mg/kg s.c. combined with morphine 1 mg/kg i.v., 20 min), 36 ± 10%; in assay [1] (compound (2) 7 mg/kg s.c. combined with morphine 1 mg/kg i.v., 30 min), 32 ± 7%. Further, the Inhibition rate in assay [1] (compound (2) 7 mg/kg s.c. combined with morphine 3 mg/kg i.v., 10 min) is reported as 47 ± 8%; in assay [1] (compound (2) 7 mg/kg s.c. combined with morphine 3 mg/kg i.v., 20 min), 50 ± 9%; in assay [1] (compound (2) 7 mg/kg s.c. combined with morphine 3 mg/kg i.v., 30 min) it was 38 ± 12%; in assay [1] (compound (2) 7 mg/kg s.c. combined with morphine 5 mg/kg i.v., 10 min), 73 ± 13%; in assay [1] (compound (2) 7 mg/kg s.c. combined with morphine 5 mg/kg i.v., 20 min), 77 ± 9%; in assay [1] (compound (2) 7 mg/kg s.c. combined with morphine 5 mg/kg i.v., 30 min), 78 ± 9%. Besides, the “effect on the analgesic effect of morphine, in words” value in assay [1] (mouse, compound s.c., morphine i.v.) is on record as “greatly potentiated the analgesic effect of morphine”. The Swelling rate in assay [2] (3 hour) is reported as 40 ± 9%; in assay [2] (5 hour), 46 ± 9%. Besides, the “Inhibition rate (tail-pressure method)” value in assay [3] is given as 43 ± 10%.

The record behind these values is US5770604A, “Aconitine compound and an antipyretic/analgesic/anti-inflammatory agent” (priority 1994, dated 1998).
